From PubChem BioAssay (NCI)
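Results reflect a 48-hour exposure of cells in 96-well plates to compound at five concentrations. At the GI50, growth is halved. TGI: concentration producing complete growth inhibition.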

Tests used:
Test in all cases: DTP human tumour cell line panel, 48 h
SF-295 CNS = tested on: SF-295 CNS
IGROV1 ovarian = tested on: IGROV1 ovarian
RPMI-8226 leukemia = tested on: RPMI-8226 leukemia
HOP-62 NSCLC = tested on: HOP-62 NSCLC
UACC-257 melanoma = tested on: UACC-257 melanoma
RXF 393 renal = tested on: RXF 393 renal
TK-10 renal = tested on: TK-10 renal
SF-539 CNS = tested on: SF-539 CNS
K-562 leukemia = tested on: K-562 leukemia
HCC-2998 colon = tested on: HCC-2998 colon
A549 NSCLC = tested on: A549 NSCLC
A498 renal = tested on: A498 renal
NCI-H460 lung = tested on: NCI-H460 lung
LOX IMVI melanoma = tested on: LOX IMVI melanoma
CCRF-CEM leukemia = tested on: CCRF-CEM leukemia
KM12 colon = tested on: KM12 colon
SK-MEL-2 melanoma = tested on: SK-MEL-2 melanoma
CAKI-1 renal = tested on: CAKI-1 renal
UO-31 renal = tested on: UO-31 renal
HS 578T breast = tested on: HS 578T breast
EKVX NSCLC = tested on: EKVX NSCLC
OVCAR-4 ovarian = tested on: OVCAR-4 ovarian
SR leukemia = tested on: SR leukemia
HL-60(TB) leukemia = tested on: HL-60(TB) leukemia
MDA-MB-231 breast = tested on: MDA-MB-231 breast
SNB-75 CNS = tested on: SNB-75 CNS
NCI-H522 lung = tested on: NCI-H522 lung
PC-3 prostate = tested on: PC-3 prostate
HCT-15 colon = tested on: HCT-15 colon
SK-OV-3 ovarian = tested on: SK-OV-3 ovarian
NCI-H23 lung = tested on: NCI-H23 lung
SK-MEL-5 melanoma = tested on: SK-MEL-5 melanoma
DU-145 prostate = tested on: DU-145 prostate
NCI-H226 lung = tested on: NCI-H226 lung
ACHN renal = tested on: ACHN renal
SK-MEL-28 melanoma = tested on: SK-MEL-28 melanoma
MOLT-4 leukemia = tested on: MOLT-4 leukemia
OVCAR-8 ovarian = tested on: OVCAR-8 ovarian
SNB-19 CNS = tested on: SNB-19 CNS
SW-620 colon = tested on: SW-620 colon
MDA-MB-435 = tested on: MDA-MB-435
BT-549 breast = tested on: BT-549 breast
NCI/ADR-RES ovarian = tested on: NCI/ADR-RES ovarian
U251 CNS = tested on: U251 CNS
T-47D breast = tested on: T-47D breast
OVCAR-5 ovarian = tested on: OVCAR-5 ovarian
UACC-62 melanoma = tested on: UACC-62 melanoma
MCF7 breast = tested on: MCF7 breast
786-0 renal = tested on: 786-0 renal
MALME-3M melanoma = tested on: MALME-3M melanoma
SF-268 CNS = tested on: SF-268 CNS
COLO 205 colon = tested on: COLO 205 colon
HCT-116 colon = tested on: HCT-116 colon
SN12C renal = tested on: SN12C renal
M14 melanoma = tested on: M14 melanoma
HT29 colon = tested on: HT29 colon
OVCAR-3 ovarian = tested on: OVCAR-3 ovarian
HOP-92 NSCLC = tested on: HOP-92 NSCLC

`NCCCCCCn1c2c(c3ccccc3c1=O)C(=O)c1ccccc1-2` showed a GI50 (SF-295 CNS) of 1.47 µM, a TGI (SF-295 CNS) of 5.56 µM and a GI50 (IGROV1 ovarian) of 1.07 µM. It also gave a TGI (IGROV1 ovarian) of 4.31 µM, a GI50 (RPMI-8226 leukemia) of 1.53 µM and a TGI (RPMI-8226 leukemia) of 6.07 µM. For the same compound, the GI50 (HOP-62 NSCLC) was 1.28 µM, the TGI (HOP-62 NSCLC) was 4.5 µM and the GI50 (UACC-257 melanoma) was 2.36 µM. The TGI (UACC-257 melanoma) was 5.8 µM, the GI50 (RXF 393 renal) was 12 µM and the TGI (RXF 393 renal) was 64.8 µM. The GI50 (TK-10 renal) was 1.65 µM, the TGI (TK-10 renal) was 3.82 µM and the GI50 (SF-539 CNS) was 1.24 µM. For the same compound, the TGI (SF-539 CNS) was 3.59 µM, the GI50 (K-562 leukemia) was 0.705 µM and the TGI (K-562 leukemia) was 5.35 µM. The GI50 (HCC-2998 colon) was 2.25 µM, the TGI (HCC-2998 colon) was 14.3 µM and the GI50 (A549 NSCLC) was 1.22 µM. It also gave a TGI (A549 NSCLC) of 25.8 µM, a GI50 (A498 renal) of 0.675 µM and a TGI (A498 renal) of 2.97 µM. It also gave a GI50 (NCI-H460 lung) of 0.415 µM, a TGI (NCI-H460 lung) of 11.3 µM and a GI50 (LOX IMVI melanoma) of 1.12 µM. For the same compound, the TGI (LOX IMVI melanoma) was 2.99 µM, the GI50 (CCRF-CEM leukemia) was 0.512 µM and the TGI (CCRF-CEM leukemia) was 3.21 µM. It also gave a GI50 (KM12 colon) of 1.38 µM, a TGI (KM12 colon) of 6.9 µM and a GI50 (SK-MEL-2 melanoma) of 1.87 µM. It also gave a TGI (SK-MEL-2 melanoma) of 3.54 µM, a GI50 (CAKI-1 renal) of 1.96 µM and a TGI (CAKI-1 renal) of 8.25 µM. The GI50 (UO-31 renal) was 0.442 µM, the TGI (UO-31 renal) was 1.85 µM and the GI50 (HS 578T breast) was 2.51 µM. The TGI (HS 578T breast) was 11.1 µM, the GI50 (EKVX NSCLC) was 10.3 µM and the TGI (EKVX NSCLC) was 28.8 µM. The GI50 (OVCAR-4 ovarian) was 2.19 µM, the TGI (OVCAR-4 ovarian) was 7.24 µM and the GI50 (SR leukemia) was 0.349 µM. The TGI (SR leukemia) was 2.09 µM, the GI50 (HL-60(TB) leukemia) was 0.266 µM and the TGI (HL-60(TB) leukemia) was 1.42 µM. The GI50 (MDA-MB-231 breast) was 1.98 µM, the TGI (MDA-MB-231 breast) was 5.46 µM and the GI50 (SNB-75 CNS) was 1.75 µM. It also gave a TGI (SNB-75 CNS) of 7.72 µM, a GI50 (NCI-H522 lung) of 1.17 µM and a TGI (NCI-H522 lung) of 2.88 µM. For the same compound, the GI50 (PC-3 prostate) was 2.12 µM, the TGI (PC-3 prostate) was 11.8 µM and the GI50 (HCT-15 colon) was 0.717 µM. The TGI (HCT-15 colon) was 5.86 µM, the GI50 (SK-OV-3 ovarian) was 0.72 µM and the TGI (SK-OV-3 ovarian) was 7.42 µM. It also gave a GI50 (NCI-H23 lung) of 1.5 µM, a TGI (NCI-H23 lung) of 6.54 µM and a GI50 (SK-MEL-5 melanoma) of 1.3 µM. For the same compound, the TGI (SK-MEL-5 melanoma) was 2.75 µM, the GI50 (DU-145 prostate) was 0.608 µM and the TGI (DU-145 prostate) was over 100 µM. The GI50 (NCI-H226 lung) was 1.08 µM, the TGI (NCI-H226 lung) was 3.07 µM and the GI50 (ACHN renal) was 0.526 µM. For the same compound, the TGI (ACHN renal) was 2.71 µM, the GI50 (SK-MEL-28 melanoma) was 1.9 µM and the TGI (SK-MEL-28 melanoma) was 3.76 µM. For the same compound, the GI50 (MOLT-4 leukemia) was 0.237 µM, the TGI (MOLT-4 leukemia) was 0.972 µM and the GI50 (OVCAR-8 ovarian) was 1.54 µM. The TGI (OVCAR-8 ovarian) was 11.3 µM, the GI50 (SNB-19 CNS) was 1.19 µM and the TGI (SNB-19 CNS) was 10.1 µM. For the same compound, the GI50 (SW-620 colon) was 0.613 µM, the TGI (SW-620 colon) was 3.16 µM and the GI50 (MDA-MB-435) was 2.05 µM. For the same compound, the TGI (MDA-MB-435) was 4.76 µM, the GI50 (BT-549 breast) was 1.8 µM and the TGI (BT-549 breast) was 4.73 µM. For the same compound, the GI50 (NCI/ADR-RES ovarian) was 2.46 µM, the TGI (NCI/ADR-RES ovarian) was 11.7 µM and the GI50 (U251 CNS) was 1.43 µM. The TGI (U251 CNS) was 12.3 µM, the GI50 (T-47D breast) was 1.85 µM and the TGI (T-47D breast) was 5.93 µM. The GI50 (OVCAR-5 ovarian) was 1.88 µM, the TGI (OVCAR-5 ovarian) was 4.6 µM and the GI50 (UACC-62 melanoma) was 1.63 µM. It also gave a TGI (UACC-62 melanoma) of 3.5 µM, a GI50 (MCF7 breast) of 0.744 µM and a TGI (MCF7 breast) of 3.61 µM. The GI50 (786-0 renal) was 0.603 µM, the TGI (786-0 renal) was over 100 µM and the GI50 (MALME-3M melanoma) was 1.91 µM. For the same compound, the TGI (MALME-3M melanoma) was 4.61 µM, the GI50 (SF-268 CNS) was 2.3 µM and the TGI (SF-268 CNS) was 16.2 µM. It also gave a GI50 (COLO 205 colon) of 1.6 µM, a TGI (COLO 205 colon) of 13.7 µM and a GI50 (HCT-116 colon) of 0.909 µM. It also gave a TGI (HCT-116 colon) of 6.11 µM, a GI50 (SN12C renal) of 1.33 µM and a TGI (SN12C renal) of 6.09 µM. The GI50 (M14 melanoma) was 2.28 µM, the TGI (M14 melanoma) was 5 µM and the GI50 (HT29 colon) was 1.2 µM. It also gave a TGI (HT29 colon) of 4.42 µM, a GI50 (OVCAR-3 ovarian) of 1.98 µM and a TGI (OVCAR-3 ovarian) of 6.24 µM. For the same compound, the GI50 (HOP-92 NSCLC) was 2.57 µM and the TGI (HOP-92 NSCLC) was 16 µM.
